Experimental data taken from PubChem BioAssay (NCI).
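Dose response: 5 concentrations. Exposure: 48 h. Format: 96-well plates. Endpoint: linear interpolation; highest concentration if not reached. GI50 marks 50% less growth. At the TGI there is no net growth.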

What was measured:
Test in all cases: NCI-60 cell line screen, 48 h
COLO 205 colon = test system: COLO 205 colon
HCT-15 colon = test system: HCT-15 colon
HOP-92 NSCLC = test system: HOP-92 NSCLC
K-562 leukemia = test system: K-562 leukemia
M14 melanoma = test system: M14 melanoma
NCI-H226 lung = test system: NCI-H226 lung
OVCAR-8 ovarian = test system: OVCAR-8 ovarian
SF-539 CNS = test system: SF-539 CNS
SR leukemia = test system: SR leukemia
UACC-257 melanoma = test system: UACC-257 melanoma
MDA-N = test system: MDA-N

SMILES	TGI (COLO 205 colon)	TGI (HCT-15 colon)	TGI (HOP-92 NSCLC)	TGI (K-562 leukemia)	TGI (M14 melanoma)	TGI (NCI-H226 lung)	TGI (OVCAR-8 ovarian)	TGI (SF-539 CNS)	TGI (SR leukemia)	TGI (UACC-257 melanoma)	TGI (MDA-N)	GI50 (SF-539 CNS)	GI50 (UACC-257 melanoma)
C[N+](C)=c1ccc2nc3c(ccc4ccccc43)oc-2c1	> 57.9 µM	34.6 µM	32.7 µM	9.39 µM	24.7 µM	33.5 µM	26 µM	32.2 µM	> 100 µM	16.4 µM	–	–	–
Cc1ccc(S(=O)(=O)NC(=O)NCCc2ccc(O)c(O)c2)cc1	> 100 µM	> 100 µM	> 100 µM	> 100 µM	> 100 µM	> 100 µM	> 100 µM	> 100 µM	> 100 µM	–	–	–	–
C[N+](C)(C)CCOC(=O)/C=C/c1cnc[nH]1	> 500 µM	> 500 µM	> 500 µM	> 500 µM	–	> 500 µM	> 500 µM	> 500 µM	–	> 500 µM	–	–	–
N=S(=O)(c1ccccc1)c1ccccc1	> 100 µM	–	–	> 100 µM	> 100 µM	> 100 µM	> 100 µM	> 100 µM	> 100 µM	> 100 µM	–	–	–
Cn1c(=O)c2c(nc3n2CCC(=O)N3CCCCl)n(C)c1=O	> 100 µM	> 100 µM	> 100 µM	> 100 µM	> 100 µM	> 100 µM	> 100 µM	–	> 100 µM	> 100 µM	> 100 µM	–	–
O=C(OCC1CCCN2CCCCC12)c1cccnc1 (configuration not stated)	> 100 µM	> 100 µM	> 100 µM	> 100 µM	–	> 100 µM	> 100 µM	> 100 µM	–	> 100 µM	> 100 µM	–	–
C[C@@H](NC(=O)[C@@H]1C[C@]1(C)CO)c1cccc2ccccc12	> 100 µM	> 100 µM	> 100 µM	> 100 µM	> 100 µM	> 100 µM	> 100 µM	–	> 100 µM	> 100 µM	> 100 µM	–	–
Brc1c2nc3ccccc3nc2n2ccc3ccccc3c12	> 100 µM	> 100 µM	> 100 µM	> 100 µM	> 100 µM	–	> 100 µM	> 100 µM	> 100 µM	> 100 µM	–	–	–
O=C(N/N=C\c1cccs1)c1ccncc1	> 100 µM	> 100 µM	> 100 µM	> 100 µM	> 100 µM	> 100 µM	> 100 µM	> 100 µM	> 100 µM	> 100 µM	–	–	–
O=C1C(C(c2ccc([N+](=O)[O-])cc2)N2CCOCC2)=C(O)C(c2ccccc2)N1c1ccccc1 (configuration not stated)	> 10 µM	> 10 µM	–	> 10 µM	> 10 µM	> 10 µM	> 10 µM	> 10 µM	> 10 µM	> 10 µM	> 10 µM	–	–
CC1(C)Oc2ccc3c(=O)cc(-c4cccs4)oc3c2C1C(=O)O (configuration not stated)	> 100 µM	–	–	> 100 µM	> 100 µM	> 100 µM	> 100 µM	> 100 µM	> 100 µM	> 100 µM	> 100 µM	–	–
Nc1ccc2nc(Nc3ccc(Cl)c(Cl)c3)cnc2c1	34.9 µM	46.5 µM	–	82.5 µM	27.4 µM	41.8 µM	> 100 µM	64.5 µM	35.5 µM	71 µM	–	–	–
N=c1n(CC(=O)NC23CC4CC(CC(C4)C2)C3)c2ccccc2n1CC(=O)NC12CC3CC(CC(C3)C1)C2	3.49 µM	3.31 µM	3.06 µM	5.54 µM	3.38 µM	–	3.13 µM	3.36 µM	4.51 µM	3.17 µM	–	–	–
CCCCOc1c(C(=O)O)cc(Br)cc1C(=O)O	> 100 µM	> 100 µM	> 100 µM	> 100 µM	> 100 µM	> 100 µM	> 100 µM	> 100 µM	–	> 100 µM	> 100 µM	–	–
CC(=O)OC12CC(C(F)(F)F)(C(F)(F)F)OC1(OC(C)=O)CC(C(F)(F)F)(C(F)(F)F)O2 (configuration not stated)	25.6 µM	> 100 µM	–	> 100 µM	> 100 µM	> 100 µM	> 100 µM	8.48 µM	82.1 µM	> 100 µM	> 100 µM	–	–
C=C1C2C[C@@H]3OC4CC5O[C@]6(CC5OC4C(C)C3OC(=O)CC3CC[C@@H]4OC5C7OC8C[C@](CCC9CC(=C)[C@H](CCC(C[C@H]1C)O2)O9)(OC7C4O3)O[C@@H]85)C[C@@H]1O[C@@]2(CC(C)[C@@H]3OC(CC(=O)CCO)C(O)C[C@@H]3O2)CC(C)[C@@H]1O6 (some centres not stated)	< 0.001 µM	0.00109 µM	0.0017 µM	–	0.17 µM	< 0.001 µM	0.0172 µM	< 0.001 µM	1.24 µM	1.52 µM	–	–	–
C/C=C/c1cc2c(c(=O)o1)C(=O)[C@@H](O)[C@H](C)O2	25.7 µM	25.9 µM	31.2 µM	> 100 µM	–	38.5 µM	35 µM	33.6 µM	–	31.8 µM	–	–	–
C=CC(C)(C)C1(CC(OC)OC)C(=O)N(C)c2ccccc21 (configuration not stated)	> 25 µM	> 25 µM	> 25 µM	> 25 µM	> 25 µM	> 25 µM	> 25 µM	–	> 25 µM	> 25 µM	> 25 µM	–	–
CO[C@H]1CC[C@]2(C)C3=CC[C@@]4(C)C(CC[C@@H]4C(C)CC[C@@H](C)C(C)C)C(=CCC2C1)O3 (some centres not stated)	> 25 µM	> 25 µM	> 25 µM	> 25 µM	> 25 µM	> 25 µM	> 25 µM	> 25 µM	> 25 µM	> 25 µM	–	–	–
Fc1ccc2[nH]cc(-c3nc(-c4c[nH]c5ccncc45)cs3)c2c1	–	–	–	–	–	–	–	2.88 µM	–	3.58 µM	–	1.52 µM	1.91 µM
Clc1ccc2nc3n[nH]c(Cl)c3nc2c1	> 100 µM	> 100 µM	–	> 100 µM	> 100 µM	–	> 100 µM	> 100 µM	–	> 100 µM	> 100 µM	–	–
Cc1ccc2n(c1)cc(-c1ccc(/C=N/NC(=N)N/N=C/c3ccc(-c4cn5cc(C)ccc5[n+]4C)cc3)cc1)[n+]2C	> 100 µM	> 100 µM	–	–	> 100 µM	–	> 100 µM	> 100 µM	> 100 µM	> 100 µM	> 100 µM	–	–
